Results: the supplement of paper PMC8988213
Structures can show the parent of a compound that is named as a salt.

How the values were obtained:
[1] = test system: ID188 patient-derived PDAC 2D line (pre-FOLFIRINOX); assay: normalised area under dose-response curve (viability relative to DMSO, 7 doses up to 10 µM) (fraction (AUC)); higher = less sensitive (more viability retained); conditions: 72 h; top dose: 10 µM
Summary of the method: (§1)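 A robot plated 1,500–3,000 cells/well of patient-derived 2D PDAC cells, outgrown from organoids, into 96-well plates, followed by overnight incubation at 37°C, 5% CO2. The cells were exposed for 72 h to SelleckChem library compounds at seven 3-fold-diluted concentrations up to 10 µM, and CellTiter-Glo luminescence was read after 10 min. Area under the dose-response curve came from the GRmetrics R package, with viability normalised to control wells.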

[2] = test system: ID211 patient-derived PDAC 2D line (post-FOLFIRINOX); assay: as above; conditions: 72 h; top dose: 10 µM
Summary of the method: as §1

Row | SMILES | normalised area under dose-response curve [1] | normalised area under dose-response curve [2]
1 | CN[C@@H](C)C(=O)N[C@H](C(=O)N1CCC[C@H]1C(=O)Nc1snnc1-c1ccccc1)C1CCCCC1 [GDC-0152] | 0.667 | 0.849
2 | O=C(Nc1cccc2cccnc12)c1ccc(N2C(=O)[C@@H]3[C@H](C2=O)[C@@H]2C=C[C@H]3C2)cc1 [IWR-1-endo] | 0.938 | 0.808
3 | O=C(Cc1ccc(-c2ccc(OCCN3CCOCC3)cc2)cn1)NCc1ccccc1 [KX2-391] | 0.624 | 0.508
4 | O=C(O)CCCCC(CCSCc1ccccc1)SCc1ccccc1 (centres undefined) [CPI-613] | 0.897 | 0.902
5 | O=C(NC1CCNCC1)c1n[nH]cc1NC(=O)c1c(Cl)cccc1Cl [AT7519 HCl] | 0.725 | 0.673
6 | CCCc1cc(C)[nH]c(=O)c1CNC(=O)c1cc(-c2ccc(N3CCN(C(C)C)CC3)nc2)cc2c1cnn2C(C)C [UNC1999] | 0.932 | 0.786
7 | Nc1ccc(S(=O)(=O)NC(=O)c2ccccc2)cc1 [Sulfabenzamide] | 0.926 | 0.747
8 | CNC(=O)c1ccc(-c2cnc3ncc(Cc4ccc5ncccc5c4)n3n2)cc1F | 0.956 | 0.855
9 | COc1cc(Nc2ncc3c(n2)-c2ccc(Cl)cc2C(c2c(F)cccc2OC)=NC3)ccc1C(=O)O [Alisertib (MLN8237)] | 0.799 | 0.88
10 | CC1=C(/C=C/C(C)=C/C=C/C(C)=C/C(=O)O)C(C)(C)CCC1 [Tretinoin] | 1.12 | 0.841
11 | Cc1cc2c(C(=O)NC[C@H](C)c3ccccc3)c(O)c(O)cc2c(O)c1-c1c(C)cc2c(C(=O)NC[C@H](C)c3ccccc3)c(O)c(O)cc2c1O [Sabutoclax] | 0.822 | 0.909
12 | CC(C)c1cc(C(=O)N2Cc3ccc(CN4CCN(C)CC4)cc3C2)c(O)cc1O | 0.665 | 0.458
13 | Cc1cc2c(F)c(Oc3ncnn4cc(OC[C@@H](C)O)c(C)c34)ccc2[nH]1 | 0.918 | 0.813
14 | COc1cc(O)c(CC=C(C)C)c(O)c1C(=O)/C=C/c1ccc(O)cc1 [Xanthohumol] | 0.943 | 0.926
15 | Nc1cc(F)ccc1NC(=O)/C=C/c1cnn(C/C=C/c2ccccc2)c1 [RGFP966] | 0.911 | 0.779
16 | CC(=O)O[C@H]1C(=O)[C@@]2(C)[C@H]([C@H](OC(=O)c3ccccc3)[C@]3(O)C[C@H](OC(=O)[C@H](O)[C@@H](NC(=O)c4ccccc4)c4ccccc4)C(C)=C1C3(C)C)[C@]1(OC(C)=O)CO[C@@H]1C[C@@H]2O [Paclitaxel] | 0.432 | 0.444
17 | Cc1cc(F)c(C(=O)Nc2cccc(-c3nncn3C(C)C)n2)cc1-n1cnc(C2CC2)c1 [Selonsertib (GS-4997)] | 0.951 | 0.911
18 | CN(C)C(=O)c1cc2cnc(Nc3ccc(N4CCNCC4)cn3)nc2n1C1CCCC1 [Ribociclib (LEE011)] | 0.961 | 0.812
19 | NC(=O)c1ncn([C@@H]2O[C@H](CO)[C@@H](O)[C@H]2O)c1N [AICAR (Acadesine)] | 0.934 | 0.887
20 | COc1cc2c(cc1OC)[C@@H]1C(=O)c3ccc4c(c3O[C@@H]1CO2)C=CC(C)(C)O4 [Deguelin] | 0.886 | 0.75
21 | CC(C)(C)C(=O)N1N=CC[C@H]1c1ccccc1 [GSK963] | 0.939 | 0.857
22 | COc1ccccc1S(=O)(=O)Nc1ccc2c(c1)CN(C)C(=O)N2 | 0.921 | 0.753
